# Reference: PubChem BioAssay (NCI)
#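 Five compound concentrations were applied to cells in 96-well plates for 48 hours; endpoints were derived by simple linear interpolation of the resulting dose-response curve. Definition used: TGI = concentration required for complete inhibition of growth.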
# Assays:
# Assay in all cases: NCI tumour cell line growth inhibition, 48 h
# SF-539 CNS = tested on: SF-539 CNS
# SR leukemia = tested on: SR leukemia
# 786-0 renal = tested on: 786-0 renal
# MDA-N = tested on: MDA-N
# BT-549 breast = tested on: BT-549 breast
# HS 578T breast = tested on: HS 578T breast
# HOP-92 NSCLC = tested on: HOP-92 NSCLC
# NCI-H226 lung = tested on: NCI-H226 lung
# SK-OV-3 ovarian = tested on: SK-OV-3 ovarian
# HOP-62 NSCLC = tested on: HOP-62 NSCLC
# SF-268 CNS = tested on: SF-268 CNS
# K-562 leukemia = tested on: K-562 leukemia
# UO-31 renal = tested on: UO-31 renal
# A498 renal = tested on: A498 renal
# EKVX NSCLC = tested on: EKVX NSCLC
# MDA-MB-435 = tested on: MDA-MB-435
# SN12C renal = tested on: SN12C renal
# MDA-MB-231 breast = tested on: MDA-MB-231 breast
# OVCAR-3 ovarian = tested on: OVCAR-3 ovarian
# M14 melanoma = tested on: M14 melanoma
# OVCAR-5 ovarian = tested on: OVCAR-5 ovarian
# HT29 colon = tested on: HT29 colon
# SK-MEL-28 melanoma = tested on: SK-MEL-28 melanoma
# OVCAR-4 ovarian = tested on: OVCAR-4 ovarian
# NCI-H460 lung = tested on: NCI-H460 lung
# OVCAR-8 ovarian = tested on: OVCAR-8 ovarian
# RPMI-8226 leukemia = tested on: RPMI-8226 leukemia
# NCI-H522 lung = tested on: NCI-H522 lung
# HCT-116 colon = tested on: HCT-116 colon
# SNB-75 CNS = tested on: SNB-75 CNS
# SK-MEL-2 melanoma = tested on: SK-MEL-2 melanoma
# LOX IMVI melanoma = tested on: LOX IMVI melanoma
# UACC-257 melanoma = tested on: UACC-257 melanoma
# HCT-15 colon = tested on: HCT-15 colon
# PC-3 prostate = tested on: PC-3 prostate
# MALME-3M melanoma = tested on: MALME-3M melanoma
# T-47D breast = tested on: T-47D breast
# DU-145 prostate = tested on: DU-145 prostate
# SW-620 colon = tested on: SW-620 colon
# SNB-19 CNS = tested on: SNB-19 CNS
# UACC-62 melanoma = tested on: UACC-62 melanoma
# SF-295 CNS = tested on: SF-295 CNS
# HL-60(TB) leukemia = tested on: HL-60(TB) leukemia
# IGROV1 ovarian = tested on: IGROV1 ovarian
# U251 CNS = tested on: U251 CNS
# MCF7 breast = tested on: MCF7 breast
# KM12 colon = tested on: KM12 colon
# A549 NSCLC = tested on: A549 NSCLC
# MOLT-4 leukemia = tested on: MOLT-4 leukemia
# TK-10 renal = tested on: TK-10 renal
# ACHN renal = tested on: ACHN renal
# NCI/ADR-RES ovarian = tested on: NCI/ADR-RES ovarian
# CAKI-1 renal = tested on: CAKI-1 renal
# NCI-H23 lung = tested on: NCI-H23 lung
# SK-MEL-5 melanoma = tested on: SK-MEL-5 melanoma
# HCC-2998 colon = tested on: HCC-2998 colon
# COLO 205 colon = tested on: COLO 205 colon
# RXF 393 renal = tested on: RXF 393 renal
# CCRF-CEM leukemia = tested on: CCRF-CEM leukemia
smiles,measurement,setting,value
O=C1CC2C(=O)c3ccccc3CC2c2ccccc21 (stereo not drawn),TGI,SF-539 CNS,> 100 µM
same,TGI,SR leukemia,81.6 µM
same,TGI,786-0 renal,> 100 µM
same,TGI,MDA-N,> 100 µM
same,TGI,BT-549 breast,> 100 µM
same,TGI,HS 578T breast,> 100 µM
same,TGI,HOP-92 NSCLC,> 100 µM
same,TGI,NCI-H226 lung,> 100 µM
same,TGI,SK-OV-3 ovarian,> 100 µM
same,TGI,HOP-62 NSCLC,> 100 µM
same,TGI,SF-268 CNS,> 100 µM
same,TGI,K-562 leukemia,> 100 µM
same,TGI,UO-31 renal,> 100 µM
same,TGI,A498 renal,> 100 µM
same,TGI,EKVX NSCLC,> 100 µM
same,TGI,MDA-MB-435,55.3 µM
same,TGI,SN12C renal,> 100 µM
same,TGI,MDA-MB-231 breast,> 100 µM
same,TGI,OVCAR-3 ovarian,> 100 µM
same,TGI,M14 melanoma,> 100 µM
same,TGI,OVCAR-5 ovarian,> 100 µM
same,TGI,HT29 colon,> 100 µM
same,TGI,SK-MEL-28 melanoma,> 100 µM
same,TGI,OVCAR-4 ovarian,> 100 µM
same,TGI,NCI-H460 lung,> 100 µM
same,TGI,OVCAR-8 ovarian,> 100 µM
same,TGI,RPMI-8226 leukemia,64 µM
same,TGI,NCI-H522 lung,> 100 µM
same,TGI,HCT-116 colon,> 100 µM
same,TGI,SNB-75 CNS,75 µM
same,TGI,SK-MEL-2 melanoma,> 100 µM
same,TGI,LOX IMVI melanoma,> 100 µM
same,TGI,UACC-257 melanoma,75.2 µM
same,TGI,HCT-15 colon,> 100 µM
same,TGI,PC-3 prostate,> 100 µM
same,TGI,MALME-3M melanoma,> 100 µM
same,TGI,T-47D breast,87.7 µM
same,TGI,DU-145 prostate,> 100 µM
same,TGI,SW-620 colon,> 100 µM
same,TGI,SNB-19 CNS,> 100 µM
same,TGI,UACC-62 melanoma,> 100 µM
same,TGI,SF-295 CNS,> 100 µM
same,TGI,HL-60(TB) leukemia,62.6 µM
same,TGI,IGROV1 ovarian,> 100 µM
same,TGI,U251 CNS,> 100 µM
same,TGI,MCF7 breast,> 100 µM
same,TGI,KM12 colon,> 100 µM
same,TGI,A549 NSCLC,> 100 µM
same,TGI,MOLT-4 leukemia,69.3 µM
same,TGI,TK-10 renal,> 100 µM
same,TGI,ACHN renal,> 100 µM
COC(=O)c1ccc(/C=C2\Oc3ccccc3C2=O)cc1,TGI,SF-539 CNS,> 100 µM
same,TGI,SR leukemia,> 100 µM
same,TGI,786-0 renal,> 100 µM
same,TGI,MDA-N,> 100 µM
same,TGI,BT-549 breast,> 100 µM
same,TGI,NCI/ADR-RES ovarian,> 100 µM
same,TGI,HS 578T breast,> 100 µM
same,TGI,CAKI-1 renal,> 100 µM
same,TGI,NCI-H226 lung,> 100 µM
same,TGI,SK-OV-3 ovarian,> 100 µM
same,TGI,HOP-62 NSCLC,> 100 µM
same,TGI,SF-268 CNS,> 100 µM
same,TGI,UO-31 renal,> 100 µM
same,TGI,EKVX NSCLC,> 100 µM
same,TGI,MDA-MB-435,> 100 µM
same,TGI,SN12C renal,> 100 µM
same,TGI,MDA-MB-231 breast,> 100 µM
same,TGI,OVCAR-3 ovarian,> 100 µM
same,TGI,M14 melanoma,> 100 µM
same,TGI,HT29 colon,> 100 µM
same,TGI,NCI-H23 lung,> 100 µM
same,TGI,SK-MEL-28 melanoma,> 100 µM
same,TGI,OVCAR-4 ovarian,> 100 µM
same,TGI,NCI-H460 lung,> 100 µM
same,TGI,OVCAR-8 ovarian,> 100 µM
same,TGI,RPMI-8226 leukemia,> 100 µM
same,TGI,NCI-H522 lung,> 100 µM
same,TGI,HCT-116 colon,> 100 µM
same,TGI,SK-MEL-5 melanoma,> 100 µM
same,TGI,SNB-75 CNS,> 100 µM
same,TGI,UACC-257 melanoma,> 100 µM
same,TGI,HCT-15 colon,> 100 µM
same,TGI,PC-3 prostate,> 100 µM
same,TGI,T-47D breast,> 100 µM
same,TGI,HCC-2998 colon,> 100 µM
same,TGI,COLO 205 colon,> 100 µM
same,TGI,DU-145 prostate,> 100 µM
same,TGI,SW-620 colon,> 100 µM
same,TGI,SNB-19 CNS,> 100 µM
same,TGI,UACC-62 melanoma,> 100 µM
same,TGI,SF-295 CNS,> 100 µM
same,TGI,HL-60(TB) leukemia,54.4 µM
same,TGI,IGROV1 ovarian,> 100 µM
same,TGI,U251 CNS,> 100 µM
same,TGI,MCF7 breast,> 100 µM
same,TGI,KM12 colon,> 100 µM
same,TGI,RXF 393 renal,> 100 µM
same,TGI,A549 NSCLC,> 100 µM
same,TGI,CCRF-CEM leukemia,> 100 µM
same,TGI,MOLT-4 leukemia,> 100 µM
same,TGI,TK-10 renal,> 100 µM
same,TGI,ACHN renal,> 100 µM
